Test results taken from ChEMBL document CHEMBL4261651, “Probing the ligand preferences of the three types of bacterial pantothenate kinase” (Bioorg Med Chem, 2018).
Activity calls are given as the source filed them. No cut-off for these calls is given here.

Columns and labels:
[1] = molecular target: T1, Type III pantothenate kinase (Pseudomonas aeruginosa (strain ATCC 15692 / DSM 22644 / CIP 104116 /JCM 14847 / LMG 12228 / 1C / PRS 101 / PAO1)) (UniProt Q9HWC1); assay: Inhibition of Pseudomonas aeruginosa PanK3 expressed in Escherichia coli BL21 Rosetta(DE3) cells at >= 100 uM using pantothenate as substrate in presence of ATP by pyruvate kinase/lactate dehydrogenase enzyme coupled assay
T1 sequence (whole entry): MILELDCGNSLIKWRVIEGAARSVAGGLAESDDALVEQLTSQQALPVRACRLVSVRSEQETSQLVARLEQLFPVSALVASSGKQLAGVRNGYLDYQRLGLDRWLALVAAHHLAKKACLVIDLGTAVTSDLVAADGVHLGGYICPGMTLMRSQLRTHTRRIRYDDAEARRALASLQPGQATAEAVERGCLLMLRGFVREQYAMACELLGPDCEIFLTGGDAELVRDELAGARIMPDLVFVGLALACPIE

[2] = molecular target: T2, Type II pantothenate kinase (Staphylococcus aureus (strain MSSA476)) (UniProt Q6G7I0); assay: Inhibition of N-terminal His6-tagged Staphylococcus aureus PanK2 expressed in Escherichia coli BL21(DE3) cells at >= 100 uM using pantothenate as substrate in presence of ATP by pyruvate kinase/lactate dehydrogenase enzyme coupled assay
T2 sequence (whole entry): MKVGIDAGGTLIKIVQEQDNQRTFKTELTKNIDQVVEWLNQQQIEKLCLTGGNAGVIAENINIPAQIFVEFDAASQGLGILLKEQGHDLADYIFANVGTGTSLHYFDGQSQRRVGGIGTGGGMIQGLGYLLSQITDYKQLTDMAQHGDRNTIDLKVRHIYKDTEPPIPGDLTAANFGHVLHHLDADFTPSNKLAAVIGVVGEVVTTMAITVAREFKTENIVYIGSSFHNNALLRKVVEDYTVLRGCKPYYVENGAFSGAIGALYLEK

Escherichia coli [3] = assay: Growth inhibition of Escherichia coli ATCC 25922 after 16 hrs by broth microdilution method; type: functional, organism-based
Enterococcus faecium = assay: Growth inhibition of Enterococcus faecium ATCC 19434 after 16 hrs by broth microdilution method; type: functional, organism-based
Escherichia coli [4] = assay: Substrate activity at N-terminal His6-tagged Escherichia coli PanK1 expressed in Escherichia coli BL21(DE3) cells assessed as Kcat in presence of ATP/NADH by pyruvate kinase/lactate dehydrogenase enzyme coupled assay
Escherichia coli [5] = assay: Substrate activity at N-terminal His6-tagged Escherichia coli PanK1 expressed in Escherichia coli BL21(DE3) cells assessed as Km in presence of ATP/NADH by pyruvate kinase/lactate dehydrogenase enzyme coupled assay
Escherichia coli [6] = assay: Substrate activity at N-terminal His6-tagged Escherichia coli PanK1 expressed in Escherichia coli BL21(DE3) cells assessed as ratio of Kcat to Km in presence of ATP/NADH by pyruvate kinase/lactate dehydrogenase enzyme coupled assay
[7] = molecular target: T2, Type II pantothenate kinase (Staphylococcus aureus (strain MSSA476)); assay: Substrate activity at N-terminal His6-tagged Staphylococcus aureus PanK2 expressed in Escherichia coli BL21(DE3) cells assessed as ratio of Kcat to Km in presence of ATP/NADH by pyruvate kinase/lactate dehydrogenase enzyme coupled assay
Pseudomonas aeruginosa = assay: Growth inhibition of Pseudomonas aeruginosa ATCC 27853 after 16 hrs by broth microdilution method; type: functional, organism-based
Escherichia coli [8] = assay: Inhibition of N-terminal His6-tagged Escherichia coli PanK1 expressed in Escherichia coli BL21(DE3) cells at >= 100 uM using pantothenate as substrate in presence of ATP by pyruvate kinase/lactate dehydrogenase enzyme coupled assay
[9] = molecular target: T2, Type II pantothenate kinase (Staphylococcus aureus (strain MSSA476)); assay: Inhibition of N-terminal His6-tagged Staphylococcus aureus PanK2 expressed in Escherichia coli BL21(DE3) cells at 200 uM using pantothenate as substrate in presence of ATP by pyruvate kinase/lactate dehydrogenase enzyme coupled assay
[10] = molecular target: T1, Type III pantothenate kinase (Pseudomonas aeruginosa (strain ATCC 15692 / DSM 22644 / CIP 104116 /JCM 14847 / LMG 12228 / 1C / PRS 101 / PAO1)); assay: Inhibition of Pseudomonas aeruginosa PanK3 expressed in Escherichia coli BL21 Rosetta(DE3) cells at 200 uM using pantothenate as substrate in presence of ATP by pyruvate kinase/lactate dehydrogenase enzyme coupled assay
Escherichia coli [11] = assay: Inhibition of N-terminal His6-tagged Escherichia coli PanK1 expressed in Escherichia coli BL21(DE3) cells at 200 uM using pantothenate as substrate in presence of ATP by pyruvate kinase/lactate dehydrogenase enzyme coupled assay
[12] = molecular target: T1, Type III pantothenate kinase (Pseudomonas aeruginosa (strain ATCC 15692 / DSM 22644 / CIP 104116 /JCM 14847 / LMG 12228 / 1C / PRS 101 / PAO1)); assay: Substrate activity at Pseudomonas aeruginosa PanK3 expressed in Escherichia coli BL21(DE3) cells assessed as ratio of Kcat to Km in presence of ATP/NADH by pyruvate kinase/lactate dehydrogenase enzyme coupled assay
Escherichia coli [13] = assay: Substrate activity at N-terminal His6-tagged Escherichia coli PanK1 expressed in Escherichia coli BL21(DE3) cells in presence of ATP/NADH by pyruvate kinase/lactate dehydrogenase enzyme coupled assay
[14] = molecular target: T1, Type III pantothenate kinase (Pseudomonas aeruginosa (strain ATCC 15692 / DSM 22644 / CIP 104116 /JCM 14847 / LMG 12228 / 1C / PRS 101 / PAO1)); assay: Substrate activity at Pseudomonas aeruginosa PanK3 expressed in Escherichia coli BL21(DE3) cells in presence of ATP/NADH by pyruvate kinase/lactate dehydrogenase enzyme coupled assay
[15] = molecular target: T2, Type II pantothenate kinase (Staphylococcus aureus (strain MSSA476)); assay: Substrate activity at N-terminal His6-tagged Staphylococcus aureus PanK2 expressed in Escherichia coli BL21(DE3) cells in presence of ATP/NADH by pyruvate kinase/lactate dehydrogenase enzyme coupled assay

| Compound | inhibition [1] | inhibition [2] | growth inhibition (GI) (Escherichia coli [3]) | growth inhibition (GI) (Enterococcus faecium) | kcat (Escherichia coli [4]) | Km (Escherichia coli [5]) | Ratio (Escherichia coli [6]) | Ratio [7] | growth inhibition (GI) (Pseudomonas aeruginosa) | inhibition (Escherichia coli [8]) | inhibition [9] | inhibition [10] | inhibition (Escherichia coli [11]) | Ratio [12] | Activity (Escherichia coli [13]) | Activity [14] | Activity [15] |
| --- | --- | --- | --- | --- | --- | --- | --- | --- | --- | --- | --- | --- | --- | --- | --- | --- | --- |
| CCCCCn1cc(CCNC(=O)[C@H](O)C(C)(C)CO)nn1 | inactive | inactive | inactive | inactive | 0.72 s⁻¹ | 33 µM | 22 mM⁻¹ s⁻¹ | 107 mM⁻¹ s⁻¹ | inactive | inactive | – | – | – | – | – | – | – |
| CCCCCn1cc(CNC(=O)[C@H](O)C(C)(C)CO)nn1 | inactive | inactive | inactive | inactive | – | – | – | 54 mM⁻¹ s⁻¹ | inactive | inactive | – | – | – | – | – | – | – |
| COCC(C)(C)[C@@H](OC)C(=O)NCCC(=O)O | – | – | inactive | inactive | – | – | – | – | inactive | – | – | – | – | – | – | – | – |
| CC(=O)CC(=O)OCC(C)(C)[C@@H](O)C(=O)NCCC(=O)O | – | – | inactive | inactive | – | – | – | – | inactive | – | – | – | – | – | – | – | – |
| CC(=O)CC(=O)NCC(C)(C)[C@@H](O)C(=O)NCCC(=O)O | – | – | inactive | inactive | – | – | – | – | inactive | – | Active | Active | Active | – | – | – | – |
| CCCCCc1cn(CCNC(=O)[C@H](O)C(C)(C)CO)nn1 | inactive | inactive | inactive | inactive | 1.11 s⁻¹ | 21 µM | 53 mM⁻¹ s⁻¹ | 97 mM⁻¹ s⁻¹ | inactive | inactive | – | – | – | – | – | – | – |
| CC(C)(CO)[C@@H](O)C(=O)NCCCC(=O)O | inactive | inactive | inactive | inactive | – | – | – | 57 mM⁻¹ s⁻¹ | inactive | inactive | – | – | – | 1.4 mM⁻¹ s⁻¹ | – | – | – |
| CO[C@@H](C(=O)NCCC(=O)O)C(C)(C)CO | inactive | inactive | inactive | inactive | 0.49 s⁻¹ | 16 µM | 31 mM⁻¹ s⁻¹ | – | inactive | inactive | – | – | – | – | – | – | – |
| CCCc1cn(CCCNC(=O)[C@H](O)C(C)(C)CO)nn1 | inactive | inactive | inactive | inactive | – | – | – | 21 mM⁻¹ s⁻¹ | inactive | inactive | – | – | – | – | – | – | – |
| COCC(C)(C)[C@@H](O)C(=O)NCCC(=O)O | – | – | inactive | inactive | – | – | – | – | inactive | – | – | Active | Active | – | – | – | – |
| CC(C)(CO)[C@@H](O)C(=O)NCCC(=O)O | – | – | – | – | 1.29 s⁻¹ | 17 µM | 76 mM⁻¹ s⁻¹ | 115 mM⁻¹ s⁻¹ | – | – | – | – | – | 20 mM⁻¹ s⁻¹ | – | – | – |
| CC(C)(CNCCc1ccccc1)[C@@H](O)C(=O)NCCC(=O)O | – | – | inactive | inactive | – | – | – | – | inactive | – | – | – | Active | – | – | – | – |
| CC(C)(C(=O)O)[C@@H](O)C(=O)NCCC(=O)O | – | – | inactive | inactive | – | – | – | – | inactive | – | Active | – | – | – | – | – | – |
| CC(C)(CNCCCO)[C@@H](O)C(=O)NCCC(=O)O | inactive | inactive | inactive | inactive | – | – | – | – | inactive | inactive | – | – | – | – | inactive | inactive | inactive |
| O=C(O)CCNC(=O)[C@H](O)CCO | inactive | inactive | inactive | inactive | – | – | – | – | inactive | inactive | – | – | – | 5 mM⁻¹ s⁻¹ | – | – | – |
| CCCCCNC(=O)CCNC(=O)[C@H](O)C(C)(C)CO | – | – | – | – | – | – | – | > 290 mM⁻¹ s⁻¹ | – | – | – | – | – | – | – | – | – |
| CCCCCCCNCC(C)(C)[C@@H](O)C(=O)NCCC(=O)O | – | – | inactive | inactive | – | – | – | – | inactive | – | – | – | – | – | – | – | – |
| CCCNCC(C)(C)[C@@H](O)C(=O)NCCC(=O)O | – | – | inactive | inactive | – | – | – | – | inactive | – | – | – | – | – | – | – | – |
| COC(=O)CCNC(=O)[C@H](O)C(C)(C)CO | inactive | inactive | inactive | inactive | 0.8 s⁻¹ | 292 µM | 2.7 mM⁻¹ s⁻¹ | 8.3 mM⁻¹ s⁻¹ | inactive | inactive | – | – | – | – | – | – | – |
| CC(C)(CO)[C@@H](O)C(=O)NCc1cn(CCc2ccccc2)nn1 | inactive | inactive | inactive | inactive | 1.09 s⁻¹ | 25 µM | 44 mM⁻¹ s⁻¹ | 37 mM⁻¹ s⁻¹ | inactive | inactive | – | – | – | – | – | – | – |
| CCCCCNCC(C)(C)[C@@H](O)C(=O)NCCC(=O)O | – | – | inactive | inactive | – | – | – | – | inactive | – | – | – | Active | – | – | – | – |
| CCCCn1cc(CCNC(=O)[C@H](O)C(C)(C)CO)nn1 | inactive | inactive | inactive | inactive | 1.08 s⁻¹ | 50 µM | 22 mM⁻¹ s⁻¹ | 115 mM⁻¹ s⁻¹ | inactive | inactive | – | – | – | – | – | – | – |
| COC(=O)CNC(=O)[C@H](O)C(C)(C)CO | inactive | inactive | inactive | inactive | 0.91 s⁻¹ | 156 µM | 5.8 mM⁻¹ s⁻¹ | 115 mM⁻¹ s⁻¹ | inactive | inactive | – | – | – | – | – | – | – |
| CNCC(C)(C)[C@@H](O)C(=O)NCCC(=O)O | – | – | inactive | inactive | – | – | – | – | inactive | – | – | Active | Active | – | – | – | – |
| CC(C)(CO)[C@@H](O)C(=O)NCC(=O)O | inactive | inactive | inactive | inactive | 1.59 s⁻¹ | 62 µM | 26 mM⁻¹ s⁻¹ | – | inactive | inactive | – | – | – | – | – | – | – |
| COC(=O)CCCNC(=O)[C@H](O)C(C)(C)CO | inactive | inactive | inactive | inactive | – | – | – | 7.1 mM⁻¹ s⁻¹ | inactive | inactive | – | – | – | – | – | – | – |
